A short description of data set [1]: Behaviour of the polymer solution in aqueous liquid at 35-42° C. Format: physicochemical. The conditions noted are these: copolymer with drug; between at least 35-42° C. The protocol:
PEG (Mw=1450; 476.2 g) was dried under vacuum (1 mmHg) at 130° C. for 5 hours. D,L-Lactide (412.9 grams) and glycolide (110.9 grams) were added to the flask and heated to 145° C. to afford a homogenous solution. Polymerization was initiated by the addition of 250 mg stannous octoate to the reaction mixture. After maintaining the reaction for five hours at 145° C., the reaction was stopped and the flask was cooled to room temperature. Unreacted lactide and glycolide were removed by vacuum distillation. […] The copolymer was purified twice by dissolving in water to afford a 25% solution, and letting the solution stir overnight at room temperature followed by elevating the solution temperature to 70° C. to precipitate the polymer. Excess water was removed by freeze drying. […] The GPC was performed on two Phenogel columns (300×7.8), 500 Å, and a mixed bed, connected in series. Mobile phase was tetrahydrofuran. Calibration was with PEG standards. Detection was by refractive index.

The conditions of data set [2]: cited from earlier work.
Data set [3] in a line: Solubility of amphotericin B in 23 wt % triblock copolymer solution. Format: physicochemical. The protocol:
Triblock copolymer of Example 2 (entry number 1) was used. The drug was mixed with the copolymer solution (23 wt % copolymer in water). The mixture was allowed to stand for 30 minutes before filtration.

Data set [4] is described as follows: physchem. The procedure:
Triblock copolymers of Example 2 were used. The neat polymer and the drug were mixed and gently heated (ca. 50° C.) to completely dissolve the drug. Water was added to the mixture to afford a 23% by weight aqueous solution of the triblock copolymers. The solution was allowed to stand for 30 minutes before filtration (0.2 μm pore size filter).

Data set [5] is described as follows: physchem. The protocol:
Polymer solutions containing 23% by weight of the copolymer were prepared in water, and paclitaxel was added to the solution and the mixture was stirred for approximately 20 minutes.
This is another data set of the same source.

The text below walks through data of patent US20020192286A1, “Biodegradable triblock copolymers as solubilizing agents for drugs and method of use thereof” (Macromed, Incorporated, priority 2001, published 2002).

In general, solubility refers to the dissolved amount per volume that the medium holds.

Values after ≈ are worked out from the molar mass of the structure shown. Bounds are passed on as bounds.

With `C[C@@H]1[C@H](O)[C@@H](C)/C=C/C=C/C=C/C=C/C=C/C=C/C=C/[C@H](O[C@@H]2O[C@H](C)[C@@H](O)[C@H](N)[C@@H]2O)C[C@@H]2O[C@](O)(C[C@@H](O)C[C@@H](O)[C@H](O)CC[C@@H](O)C[C@@H](O)CC(=O)O[C@H]1C)C[C@H](O)[C@H]2C(=O)O` [amphotericin B], the “state of polymer solution containing drug when mixed with an aqueous liquid” value (“state” below) in data set [1] is “remained as a free flowing liquid”. In data set [2], the “reported solubility in pure water” value was 3 µg/mL. Further, in data set [3] (23 wt % copolymer of Example 2 entry number 1 in water, 30 minutes, filtered), the “solubility in the aqueous triblock copolymer solution” value was 150 µg/mL (≈ 162 µM). The molecule also registered an increase of solubility in data set [3] (copolymer solution versus pure water) of 50 fold.
`COC1=CC(=O)C[C@@H](C)[C@]12Oc1c(Cl)c(OC)cc(OC)c1C2=O` [griseofulvin]: in data set [1], the “state” value is “remained as free flowing liquids”. In addition, the solubility at 30 min in the data set “physchem [4]” (25 °C, aqueous with cosolvent or surfactant or cyclodextrin, Drug Solubility) is 1500 µg/mL (≈ 4250 µM). Moreover, in “physchem [4]” (30 min), the “Drug Solubility” value is 1570 µg/mL. This molecule also registered a solubility in “physchem [4]” (water, water solubility) of 10 µg/mL (≈ 28.3 µM).
Consider `CC(=O)O[C@H]1C(=O)[C@@]2(C)[C@H]([C@H](OC(=O)c3ccccc3)[C@]3(O)C[C@H](OC(=O)[C@H](O)[C@@H](NC(=O)c4ccccc4)c4ccccc4)C(C)=C1C3(C)C)[C@]1(OC(C)=O)CO[C@@H]1C[C@@H]2O` [paclitaxel], for which the “state” value in data set [1] is listed as “remained as a free flowing liquid”. Moreover, the increase of solubility result in the data set “physchem [5]” is “at least 5000 fold”. The solubility in the data set “physchem [5]” (aqueous with cosolvent or surfactant or cyclodextrin, thermodynamic from solid) is above 25000 µg/mL; in “physchem [5]” (water), around 5 µg/mL (≈ 5.86 µM).
